This is an account of results in ChEMBL document CHEMBL5230103, “Hydroxamic acid hybrids as the potential anticancer agents: An Overview” (Eur J Med Chem, 2020).

Data set [1] has as its system ASPC1. As to the kind of experiment: Cytotoxicity against human ASPC1 cells assessed as inhibition of cell growth by SRB assay. The data set is classed as functional, cell-based. (The SRB assay estimates cell density from bound dye.)
In data set [2] the test system is ASPC1. As to the kind of experiment: Potency index, ratio of vorinostat IC50 to test compound IC50 for cytotoxicity against human ASPC1 cells assessed as inhibition of cell growth by SRB assay. The data set is classed as functional.
Data set [3] deals with SW-620. Briefly: Cytotoxicity against human SW620 cells assessed as inhibition of cell growth by SRB assay. Format: functional, cell-based.
Data set [4] concerns SW-620. As to the kind of experiment: Potency index, ratio of vorinostat IC50 to test compound IC50 for cytotoxicity against human SW620 cells assessed as inhibition of cell growth by SRB assay. Format: functional.
In data set [5] the test system is PC-3. Briefly: Cytotoxicity against human PC-3 cells assessed as inhibition of cell growth by SRB assay. The data set is classed as functional, cell-based.
For data set [6], the system named is PC-3. Briefly: Potency index, ratio of vorinostat IC50 to test compound IC50 for cytotoxicity against human PC-3 cells assessed as inhibition of cell growth by SRB assay. The data set is classed as functional.
Data set [7] concerns the target Histone deacetylase 2 (Homo sapiens, UniProt Q92769). Briefly: Inhibition of HDAC2 (unknown origin).
The test system of data set [8] is HT-29. Briefly: Antitumor activity against human HT-29 cells xenografted in mouse assessed as tumor growth inhibition at 100 mg/kg, po relative to control. The data set is classed as functional. Particulars: read-out: TGI. On the technique in general: A xenograft is tissue or cells of one species grown in another, often human tumour cells in immunodeficient mice.

The test system of data set [9] is HT-29. Briefly: Antitumor activity against human HT-29 cells xenografted in mouse assessed as tumor growth inhibition at 50 mg/kg, po relative to control. The data set is classed as functional. Particulars: read-out: TGI.
For data set [10], the system named is HT-29. Briefly: Antitumor activity against human HT-29 cells xenografted in mouse assessed as tumor growth inhibition at 25 mg/kg, po relative to control. Format: functional. Particulars: read-out: TGI.
Data set [11] concerns HCT-116. Briefly: Cytotoxicity against human HCT-116 cells assessed as inhibition of cell growth by SRB assay. The data set is classed as functional, cell-based.
Data set [12] relates to A549. As to the kind of experiment: Cytotoxicity against human A549 cells assessed as inhibition of cell growth by SRB assay. Format: functional.
The test system of data set [13] is Hep 3B2. Briefly: Cytotoxicity against human Hep3B cells assessed as inhibition of cell growth by MTT assay. The data set is classed as functional.
The target in data set [14] is Histone deacetylase. As to the kind of experiment: Inhibition of HDAC (unknown origin). Format: protein assay, Homo sapiens.
The target of data set [15] is Histone deacetylase (Homo sapiens) (UniProt Q13547+O15379+Q9UBN7+Q92769+Q9UQL6+Q8WUI4+Q9BY41+Q96DB2+P56524+Q9UKV0+Q969S8). As to the kind of experiment: Potency index, ratio of vorinostat IC50 to test compound IC50 for inhibition of HDAC (unknown origin). The data set is classed as protein assay.
Data set [16] can be described thus: Selectivity index, ratio of CC50 for cytotoxicity against HEK293 cells to IC50 for cytotoxicity against human Jurkat E6.1 cells. The data set is classed as toxicity, cell-based. Particulars: HEK293 cells and Jurkat E6.1 cells, read-out: Ratio CC50/IC50.
The nature of data set [17]: Selectivity index, ratio of CC50 for cytotoxicity against HEK293 cells to IC50 for cytotoxicity against human MCF7 cells. Format: toxicity, cell-based. Particulars: HEK293 cells and MCF7 cells, read-out: Ratio CC50/IC50.
In data set [18] the test system is A549. As to the kind of experiment: Cytotoxicity against human A549 cells assessed as inhibition of cell growth by MTT assay. Format: functional, cell-based. A general note: Formazan colour is commonly taken as a measure of viable cells.
Data set [19] concerns Jurkat E6.1. Briefly: Cytotoxicity against human Jurkat E6.1 cells assessed as inhibition of cell growth by MTT assay. Format: functional, cell-based.
Data set [20] is described as follows: Selectivity index, ratio of CC50 for cytotoxicity against HEK293 cells to IC50 for cytotoxicity against human A549 cells. The data set is classed as toxicity, cell-based. Particulars: HEK293 cells and A549 cells, read-out: Ratio CC50/IC50.
Data set [21] has as its target Histone deacetylase 3 (Homo sapiens, UniProt O15379). As to the kind of experiment: Inhibition of HDAC3 (unknown origin).
The nature of data set [22]: Selectivity index, ratio of CC50 for cytotoxicity against HEK293 cells to IC50 for cytotoxicity against human HeLa cells. Format: toxicity, cell-based. Particulars: HEK293 cells and HeLa cells, read-out: Ratio CC50/IC50.
Data set [23] in a line: Selectivity index, ratio of CC50 for cytotoxicity against HEK293 cells to IC50 for cytotoxicity against mouse B16-F10 cells. Format: toxicity, cell-based. Particulars: human, HEK293 cells and B16-F10 cells; read-out: Ratio CC50/IC50.
Data set [24] can be described thus: Cytotoxicity against HEK293 cells by MTT assay. Particulars: human. The data set is classed as toxicity, cell-based.
Data set [25] deals with HeLa. As to the kind of experiment: Cytotoxicity against human HeLa cells assessed as inhibition of cell growth by MTT assay. Format: functional, cell-based.
Data set [26] has as its system B16-F10. As to the kind of experiment: Cytotoxicity against mouse B16-F10 cells assessed as inhibition of cell growth by MTT assay. Format: functional, cell-based.
Data set [27] has as its system MCF7. As to the kind of experiment: Cytotoxicity against human MCF7 cells assessed as inhibition of cell growth by MTT assay. The data set is classed as functional, cell-based.
The subject of data set [28] is Plasmodium falciparum. Briefly: Antimalarial activity against erythrocytic stage of chloroquine resistant Plasmodium falcipuram Dd2 measured after 3 days by HRP2-ELISA. Particulars: Dd2, 72 h. The data set is classed as functional, organism-based.
Data set [29] relates to Plasmodium falciparum. As to the kind of experiment: Antimalarial activity against erythrocytic stage of chloroquine susceptible Plasmodium falcipuram 3D7 measured after 3 days by HRP2-ELISA. The data set is classed as functional, organism-based. Particulars: 3D7, 72 h.
Data set [30] concerns HepG2. Briefly: Cytotoxicity against human HepG2 cells assessed as inhibition of cell growth measured after 72 hrs by MTT assay. The data set is classed as functional, cell-based. Particulars: HepG2, 72 h.
For data set [31], the system named is U2OS. As to the kind of experiment: cells. The data set is classed as functional, cell-based. Particulars: Homo sapiens, 72 h.
Description: Cytotoxicity against human U2OS cells assessed as inhibition of cell growth measured after 72 hrs by MTT assay
In data set [32] the test system is Plasmodium berghei. As to the kind of experiment: Antimalarial activity against hepatic stage of Plasmodium berghei infected in human Huh-7 cells preincubated for 1 hr followed by parasite addition and measured after 48 hrs by bioluminescence assay. Format: functional, organism-based.
Data set [33] has as its system MCF7. As to the kind of experiment: cells. Format: functional, cell-based. Particulars: Homo sapiens, MCF7, 72 h.
Description: Cytotoxicity against human MCF7 cells assessed as inhibition of cell growth measured after 72 hrs by MTT assay
Data set [34] relates to HCT-116. As to the kind of experiment: Cytotoxicity against human HCT-116 cells assessed as inhibition of cell growth measured after 24 hrs by MTT assay. The data set is classed as functional, cell-based. Particulars: HCT-116, 24 h.
The subject of data set [35] is MDA-MB-231. Briefly: Cytotoxicity against human MDA-MB-231 cells assessed as inhibition of cell growth measured after 24 hrs by MTT assay. Format: functional, cell-based. Particulars: MDA-MB-231, 24 h.
Data set [36] concerns Ehrlich. As to the kind of experiment: Antitumor activity against mouse EAC cells implanted in mouse assessed as survival rate at 125 mg/kg, ip administered for 10 days. Particulars: 240 h, time 10 day. The data set is classed as functional.
The subject of data set [37] is MCF7. Briefly: Cytotoxicity against human MCF7 cells assessed as inhibition of cell growth measured after 24 hrs by MTT assay. Format: functional, cell-based. Particulars: MCF7, 24 h.

Sequence of Histone deacetylase 3 (O15379 whole entry): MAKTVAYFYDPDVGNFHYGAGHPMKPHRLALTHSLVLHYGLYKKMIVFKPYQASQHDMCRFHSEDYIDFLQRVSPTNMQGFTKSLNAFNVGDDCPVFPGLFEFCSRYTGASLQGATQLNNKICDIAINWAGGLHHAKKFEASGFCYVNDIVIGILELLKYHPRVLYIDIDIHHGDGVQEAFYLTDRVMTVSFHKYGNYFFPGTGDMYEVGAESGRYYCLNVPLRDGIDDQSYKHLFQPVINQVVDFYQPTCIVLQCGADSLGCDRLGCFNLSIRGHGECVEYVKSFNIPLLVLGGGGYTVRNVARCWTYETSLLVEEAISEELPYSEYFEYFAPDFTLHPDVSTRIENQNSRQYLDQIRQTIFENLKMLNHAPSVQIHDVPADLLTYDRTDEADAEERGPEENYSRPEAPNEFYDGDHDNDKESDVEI
Sequence of Histone deacetylase 2 (Q92769 whole entry): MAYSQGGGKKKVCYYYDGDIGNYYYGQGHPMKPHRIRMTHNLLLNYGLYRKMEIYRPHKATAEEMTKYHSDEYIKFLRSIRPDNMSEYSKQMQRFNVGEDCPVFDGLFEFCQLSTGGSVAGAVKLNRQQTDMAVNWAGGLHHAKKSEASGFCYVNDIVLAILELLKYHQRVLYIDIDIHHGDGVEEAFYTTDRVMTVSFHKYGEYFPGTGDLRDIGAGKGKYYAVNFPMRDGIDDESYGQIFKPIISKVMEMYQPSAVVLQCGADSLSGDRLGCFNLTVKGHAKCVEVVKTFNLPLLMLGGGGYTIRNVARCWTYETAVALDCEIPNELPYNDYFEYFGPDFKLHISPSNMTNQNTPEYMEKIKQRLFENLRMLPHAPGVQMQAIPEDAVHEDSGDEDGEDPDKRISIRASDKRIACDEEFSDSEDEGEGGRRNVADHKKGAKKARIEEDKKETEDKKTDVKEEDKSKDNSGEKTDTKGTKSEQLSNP

On to `O=C(/C=C/c1ccc(CN2C/C(=N\O)c3cc(Cl)ccc32)cc1)NO`, for which the IC50 worked out at 470 nM in data set [1], 470 nM in [3], 470 nM in data set [5] and 86 nM in data set [7]. In addition, the “Ratio IC50” value in data set [2], in data set [4] and in data set [6] was 1.8 in each case.
Take `C[C@H](NC(=O)c1nc(-c2ncc(-c3ccccc3)s2)sc1C1CC1)c1ccc(C(=O)NO)cc1`: the inhibition in vivo at 100 mg/kg in data set [8] turned out to be 62.5%. Besides, the inhibition in vivo at 50 mg/kg in data set [9] was found to be 40.7%. Moreover, the inhibition in vivo at 25 mg/kg in [10] was 39.4%.
For `CCn1c(C)c(CCNS(=O)(=O)c2ccc(/C=C/C=C/C(=O)NO)cc2)c2ccccc21`, the GI50 in data set [11], in [5], in data set [12] and in [13] was 20 nM each time. This compound gave a half-inhibitory concentration (IC50) in data set [14] of 3.3 nM. Also, the Ratio IC50 in data set [15] was 35.
For the compound `O=C(CCCN1CCN(C(=O)Nc2cccc3ncccc23)CC1)NO`, the selectivity ratio in data set [16], in data set [17], in data set [20], in data set [22] and in [23] was more than 8.7 throughout. Also, the IC50 in data set [18] came to 7190 nM; in data set [19] it was 7190 nM; in data set [21], 4.42 nM; in data set [25], 7190 nM; in data set [26], 7190 nM; in data set [27], 7190 nM. The compound further gave a cytotoxic concentration (CC50) in [24] of more than 100000 nM.
Consider `COc1cc(NC(C)CCCCCNC(=O)CCC(=O)NO)c2ncccc2c1` (stereo not drawn), for which the half-inhibitory concentration (IC50) in [28] amounted to 300 nM; in data set [29] it was 300 nM; in data set [30], 1600 nM; in [31], 3300 nM; in data set [32] it was 300 nM; in data set [33], 1600 nM.
On to `Nn1c(SCCC(=O)NO)nnc1-c1cccnc1`, for which the IC50 in [34], in [35] and in data set [37] was 10400 nM throughout. Further, the survival at 125 mg/kg in data set [36] was determined as 205%.

By IC50 is commonly meant the concentration needed to halve the response being measured. A word on the GI50: it is the concentration giving 50% growth inhibition. As a reminder, the CC50 is the concentration at which the toxic effect on the cells reaches its halfway point. Higher therefore signals lower toxicity to the cells.
